{"source": "ChEMBL document CHEMBL6074678", "about": "“Selectively Antagonizing the NOD1-Mediated Inflammatory Signaling Pathway Mitigates the Gastric Inflammation Induced by Helicobacter pylori Infection” (J Med Chem, 2024)", "test_system": "THP-1", "test": "Anti-inflammatory activity in human THP-1 cells assessed as decrease in IL-6 mRNA level at 0.1 uM pretreated for 1 hr followed by C12-iE-DAP stimulation for 2 hrs by RT-qPCR analysis relative to control", "assay_type": "functional", "design": "scale not given: the % may be the effect or the level left", "conditions": "time 3 hrs", "data": [{"smiles": "CS(=O)(=O)c1ccc2nc(Cl)n(-c3ccc(Cl)c(NS(=O)(=O)c4c(F)cccc4F)c3)c(=O)c2c1", "values": [{"measurement": "Activity", "result": "~100", "unit": "%"}]}]}
